Literature values in US6048878A, “Substituted piperidine derivatives as selective agonists of 5-HT receptors” (Merck Sharp & Dohme Ltd., priority 1995, dated 2000).

Experiments:
[1] = tested on: human 5-HT1D.sbsb.α and 5-HT1D.sbsb.β receptor subtypes; details: cf. WO-A-91/17174, Table 1
[2] = therapeutic doses

## CNS(=O)(=O)Cc1ccc2[nH]cc(CCN(C)C)c2c1 [sumatriptan]
[1]
  discrimination between the human 5-HT1D.sbsb.α and 5-HT1D.sbsb.β receptor subtypes: barely discriminates
[2]
  adverse cardiovascular events in humans: certain adverse cardiovascular events
